Key:
[1] = target: T1, GST-tagged Tankyrase-2 (873-1166 aa) (Homo sapiens, UniProt Q9H2K2); assay: Tankyrase 2 autoparsylation assay (HTRF); type: biochemical; conditions: read-out: IC50 TNKS2 enzyme assay
T1 construct: GST-tagged Tankyrase-2 (873-1166 aa)
Experimental: (§1) Biochemical activity testing of Tankyrase 1 and 2: Autoparsylation assay
(§2) The autoparsylation assay is run in two steps: the enzymatic reaction in which GST-tagged Tankyrase-1, resp Tankyrase-2 transferred biotinylated ADP-ribose to itself from biotinylated NAD as co-substrate and the detection reaction where a time resolved FRET between cryptate labelled anti-GST bound to the GST tag of the enzyme and Xlent® labelled-streptavidin bound the biotin-parsylation residue is analysed. The autoparsylation activity was detectable directly via the increase in HTRF signal.
(§3) The autoparsylation assay is performed as 384-well HTRF® (Cisbio, Codolet, France) assay format in Greiner low volume nb 384-well microtiter plates and is used for high throughput screen. 250 nM GST-tagged Tankyrase-1 (1023-1327 aa), respectively about 250 nM GST-tagged Tankyrase-2 (873-1166 aa) and 5 μM bio-NAD (Biolog, Life science Inst., Bremen, Germany) as co-substrate are incubated in a total volume of 5 μl (50 mM HEPES, 4 mM Mg-chloride, 0.05% Pluronic F-68, 1.4 mM DTT, 0.5% DMSO, pH 7.7) in the absence or presence of the test compound (10 dilution concentrations) for 90 min at 30° C. The reaction is stopped by the addition of 1 μl 50 mM EDTA solution. 2 μl of the detection solution (1.6 μM SA-Xlent® (Cisbio, Codolet, France), 7.4 nM Anti-GST-K® (Eu-labelled anti-GST, Cisbio, Codolet, France) in 50 mM HEPES, 800 mM KF, 0.1% BSA, 20 mM EDTA, 0.1% CHAPS, pH 7.0) are added. After 1 h incubation at room temperature the HTRF is measured with an Envision multimode reader (Perkin Elmer LAS Germany GmbH) at excitation wavelength 340 nm (laser mode) and emission wavelengths 615 nm and 665 nm. The ratio of the emission signals is determined. The full value used is the inhibitor-free reaction. The pharmacological zero value used is XAV-939 (Tocris) in a final concentration of 5 μM. The inhibitory values (IC50) are determined using either the program Symyx Assay Explorer® or Condosseo® from GeneData.

[2] = target: T2, GST-tagged Tnks-2 (873-1166 aa) (Homo sapiens, UniProt Q9H2K2); assay: TNKS2 activity ELISA (autoparsylation assay); type: biochemical
T2 construct: GST-tagged Tnks-2 (873-1166 aa, prepared in-house); made in house
Experimental: (§4) Description of the TNKS1 and TNKS2 ELISA Assay
(§5) Biochemical Activity Testing of TNKS 1 and 2: Activity ELISA (Autoparsylation Assay)
(§6) For analysis of autoparsylation activity of TNKS 1 and 2 an activity ELISA is performed: In the first step GST tagged TNKS is captured on a Glutathione coated plate. Then the activity assay with biotinylated NAD is performed in the absence/presence of the compounds. During the enzymatic reaction GST tagged TNKS transfers biotinylated ADP-ribose to itself from biotinylated NAD as co-substrate. For the detection streptavidin-HRP conjugate is added that binds to the biotinylated TNKS and is thereby captured to the plates. The amount of biotinylated resp. autoparsylated TNKS is detected with a luminescence substrate for HRP. The level of the luminescence signal correlates directly with the amount of autoparsylated TNKS and therefore with activity of TNKS.
(§7) The activity ELISA is performed in 384 well Glutathione coated microtiter plates (Express capture Glutathione coated plate, Biocat, Heidelberg, Germany). The plates are pre-equilibrated with PBS. Then the plates are incubated with 50 μl 20 ng/well GST-tagged Tnks-1 (1023-1327 aa, prepared in-house), respectively GST-tagged Tnks-2 (873-1166 aa, prepared in-house) in assay buffer (50 mM HEPES, 4 mM Mg-chloride, 0.05% Pluronic F-68, 2 mM DTT, pH 7.7) overnight at 4° C. The plates are washed 3 times with PBS-Tween-20. The wells are blocked by incubation at room temperature for 20 minutes with 50 μl blocking buffer (PBS, 0.05% Tween-20, 0.5% BSA). Afterwards the plates are washed 3 times with PBS-Tween-20. The enzymatic reaction is performed in 50 μl reaction solution (50 mM HEPES, 4 mM Mg-chloride, 0.05% Pluronic F-68, 1.4 mM DTT, 0.5% DMSO, pH 7.7) with 10 μM bio-NAD (Biolog, Life science Inst., Bremen, Germany) as co-substrate in the absence or presence of the test compound (10 dilution concentrations) for 1 hour at 30° C. The reaction is stopped by 3 times washing with PBS-Tween-20. For the detection 50 μl of 20 ng/μl Streptavidin, HRP conjugate (MoBiTec, Göttingen, Germany) in PBS/0.05% Tween-20/0.01% BSA are added and the plates are incubated for 30 minutes at room temperature. After three times washing with PBS-Tween-20 50 μl of SuperSignal ELISA Femto Maximum sensitivity substrate solution (ThermoFisherScientific (Pierce), Bonn, Germany) are added. Following a 1 minute incubation at room temperature luminescence signals are measured with an Envision multimode reader (Perkin Elmer LAS Germany GmbH) at 700 nm. The full value used is the inhibitor-free reaction. The pharmacological zero value used is XAV-939 (Tocris) in a final concentration of 5 μM. The inhibitory values (IC50) are determined using either the program Symyx Assay Explorer® or Condosseo® from GeneData.

His-tagged Parp-1 = target: T3, His-tagged Parp-1 (Homo sapiens, UniProt P09874); assay: PARP-1 autoparsylation assay (HTRF); type: biochemical; conditions: PARP-1 autoparsylation HTRF
T3 construct: purchased Enzo Life Sciences GmbH, Lörrach, Germany
Excerpt: Description of the PARP1 Assay
Biochemical Activity Testing of PARP-1: Autoparsylation Assay
as §2, with “His-tagged Parp-1 transfers” for “GST-tagged Tankyrase-1, resp Tankyrase-2 transferred”, “ADP-ribose/ADP-ribose” for “ADP-ribose”, “NAD/NAD” for “NAD”, “anti-His antibody” for “anti-GST”, “His” for “GST”, “is” for “was”
The autoparsylation assay is performed as 384-well HTRF® (Cisbio, Codolet, France) assay format in Greiner low volume nb 384-well microtiter plates. 35 nM His-tagged Parp-1 (human, recombinant, Enzo Life Sciences GmbH, Lörrach, Germany) and a mixture of 125 nM bio-NAD (Biolog, Life science Inst., Bremen, Germany) and 800 nM NAD as co-substrate are incubated in a total volume of 6 μl (100 mM Tris/HCl, 4 mM Mg-chloride, 0.01% IGEPAL® CA630, 1 mM DTT, 0.5% DMSO, pH 8, 13 ng/μl activated DNA (BPS Bioscience, San Diego, US)) in the absence or presence of the test compound (10 dilution concentrations) for 150 min at 23° C. The reaction is stopped by the addition of 4 μl of the Stop/detection solution (70 nM SA-Xlent® (Cisbio, Codolet, France), 2.5 nM Anti-His-K® (Eu-labelled anti-His, Cisbio, Codolet, France) in 50 mM HEPES, 400 mM KF, 0.1% BSA, 20 mM EDTA, pH 7.0). After 1 h incubation at room temperature the HTRF is measured with an Envision multimode reader (Perkin Elmer LAS Germany GmbH) at excitation wavelength 340 nm (laser mode) and emission wavelengths 615 nm and 665 nm. The ratio of the emission signals is determined. The full value used is the inhibitor-free reaction. The pharmacological zero value used is Olaparib (LClabs, Woburn, US) in a final concentration of 1 μM. The inhibitory values (IC50) are determined using either the program Symyx Assay Explorer® or Condosseo® from GeneData.

[3] = target: T4, GST-tagged Tnks-1 (1023-1327 aa) (Homo sapiens, UniProt O95271); assay: TNKS1 activity ELISA (autoparsylation assay); type: biochemical
T4 construct: GST-tagged Tnks-1 (1023-1327 aa, prepared in-house); made in house
Experimental: as §4, §5, §6, §7

[4] = target: T5, GST-tagged Tankyrase-1 (1023-1327 aa) (Homo sapiens, UniProt O95271); assay: Tankyrase 1 autoparsylation assay (HTRF); type: biochemical; conditions: read-out: IC50 TNKS1 enzyme assay
T5 construct: GST-tagged Tankyrase-1 (1023-1327 aa)
Experimental: as §1, §2, §3

Tankyrases = assay: Cellular inhibition of Tankyrase, Axin2 level in DLD1 cells (Luminex); type: cell-based; conditions: Axin2 increase, 24 hours, read-out: EC50 [M] TNKS cellular assay
Experimental: Measurement of Cellular Inhibition of Tankyrase
Since Tankyrases have been described to modulate cellular level of Axin2 (Huang et al., 2009; Nature) the increase of Axin2 level is used as read-out for determination of cellular inhibition of Tankyrases in a Luminex based assay.
Cells of the colon carcinoma cell line DLD1 are plated in 96 well plates with 1.5×10^4 cells per well. Next day, cells are treated with a serial dilution of test compound in seven steps as triplicates with a final DMSO concentration of 0.3%. After 24 hours, cells are lysed in lysis buffer (20 mM Tris/HCl pH 8.0, 150 mM NaCl, 1% NP40, 10% Glycerol) and lysates are cleared by centrifugation through a 96 well filter plate (0.65 μm). Axin2 protein is isolated from cell lysates by incubation with a monoclonal anti-Axin2 antibody (R&D Systems #MAB6078) that is bound to fluorescent carboxybeads. Then, bound Axin2 is specifically detected with a polyclonal anti-Axin2 antibody (Cell Signaling #2151) and an appropriate PE-fluorescent secondary antibody. The amount of isolated Axin2 protein is determined in a Luminex^200 machine (Luminex Corporation) according to the manufacturer's instruction by counting 100 events per well. Inhibition of Tankyrase by test compounds results in higher levels of Axin2 which directly correlates with an increase of detectable fluorescence. As controls cells are treated with solvent alone (neutral control) and with a Tankyrase reference inhibitor IWR-2 (3E-06 M) which refers as control for maximum increase of Axin2. For analysis, the obtained data are normalized against the untreated solvent control and fitted for determination of the EC50 values using the Assay Explorer software (Accelrys).

DLD-1-cancer cells = conditions: Huang et al., 2009; cited from earlier work
β-catenin = conditions: Huang et al., 2009; cited from earlier work

T5 sequence (O95271 1023-1327): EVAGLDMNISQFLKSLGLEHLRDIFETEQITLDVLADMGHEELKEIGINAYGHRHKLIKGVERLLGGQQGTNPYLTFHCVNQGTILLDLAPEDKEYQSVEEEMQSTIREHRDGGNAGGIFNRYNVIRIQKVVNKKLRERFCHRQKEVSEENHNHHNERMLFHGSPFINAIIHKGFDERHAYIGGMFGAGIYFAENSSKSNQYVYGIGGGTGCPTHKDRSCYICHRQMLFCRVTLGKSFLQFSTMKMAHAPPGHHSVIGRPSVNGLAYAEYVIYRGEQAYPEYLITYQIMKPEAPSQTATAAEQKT
T4 sequence (O95271 1023-1327): as above
T2 sequence (Q9H2K2 873-1166): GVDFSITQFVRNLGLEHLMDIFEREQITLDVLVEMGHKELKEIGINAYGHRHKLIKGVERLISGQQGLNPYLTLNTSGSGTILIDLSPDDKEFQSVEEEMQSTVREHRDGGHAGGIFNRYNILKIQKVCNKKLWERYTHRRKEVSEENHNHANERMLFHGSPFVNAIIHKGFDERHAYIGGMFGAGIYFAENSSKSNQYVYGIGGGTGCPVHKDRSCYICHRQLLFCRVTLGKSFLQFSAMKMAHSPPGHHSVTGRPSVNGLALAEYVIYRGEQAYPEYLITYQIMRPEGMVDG
T1 sequence (Q9H2K2 873-1166): as above
T3 sequence (P09874 whole entry): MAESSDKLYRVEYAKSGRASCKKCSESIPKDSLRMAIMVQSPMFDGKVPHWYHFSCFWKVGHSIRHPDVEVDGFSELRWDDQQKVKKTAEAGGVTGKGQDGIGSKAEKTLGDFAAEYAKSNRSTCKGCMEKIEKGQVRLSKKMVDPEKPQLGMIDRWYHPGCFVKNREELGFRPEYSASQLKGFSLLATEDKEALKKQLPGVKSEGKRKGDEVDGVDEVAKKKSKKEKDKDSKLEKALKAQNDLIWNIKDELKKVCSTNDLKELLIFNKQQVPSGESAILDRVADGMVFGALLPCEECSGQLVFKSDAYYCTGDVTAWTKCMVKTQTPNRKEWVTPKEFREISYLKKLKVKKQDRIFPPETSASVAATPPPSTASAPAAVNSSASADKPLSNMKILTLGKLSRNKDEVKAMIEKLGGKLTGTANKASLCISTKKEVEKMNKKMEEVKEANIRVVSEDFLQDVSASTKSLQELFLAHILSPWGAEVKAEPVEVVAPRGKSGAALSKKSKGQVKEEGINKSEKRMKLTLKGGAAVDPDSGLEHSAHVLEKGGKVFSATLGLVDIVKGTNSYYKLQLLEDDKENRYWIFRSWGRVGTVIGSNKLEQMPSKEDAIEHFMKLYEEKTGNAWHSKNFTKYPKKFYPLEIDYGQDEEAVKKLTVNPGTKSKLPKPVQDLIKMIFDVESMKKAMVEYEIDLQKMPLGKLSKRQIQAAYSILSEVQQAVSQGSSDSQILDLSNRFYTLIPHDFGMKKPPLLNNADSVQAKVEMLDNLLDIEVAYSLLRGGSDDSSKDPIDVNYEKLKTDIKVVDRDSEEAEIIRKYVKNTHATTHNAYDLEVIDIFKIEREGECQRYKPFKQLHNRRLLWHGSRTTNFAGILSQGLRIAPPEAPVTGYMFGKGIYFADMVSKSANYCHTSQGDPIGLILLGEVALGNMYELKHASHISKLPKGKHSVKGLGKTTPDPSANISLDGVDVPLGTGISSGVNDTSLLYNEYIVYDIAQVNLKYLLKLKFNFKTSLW

| Structure (SMILES) | IC50 [1] [µM] | IC50 [2] [µM] | IC50 (His-tagged Parp-1) [µM] | IC50 [3] [µM] | IC50 [4] [µM] | EC50 (Tankyrases) [M] | growth of DLD-1-cancer cells (DLD-1-cancer cells) | Wnt-stimulated accumulation of β-catenin (β-catenin) |
| --- | --- | --- | --- | --- | --- | --- | --- | --- |
| Cc1ccc(-c2cn3cncc3c(=O)[nH]2)cc1 [Compound A1, 6-p-tolyl-7H-imidazo[1,5-a]pyrazin-8-one] | 0.3 to 3 | 0.3 to 3 | 3 to 50 | 0.3 to 3 | 0.3 to 3 | – | – | – |
| CC(C)(O)c1ccc(-c2cn3cncc3c(=O)[nH]2)cc1 [Compound A6, 6-[4-(1-hydroxy-1-methyl-ethyl)-phenyl]-7H-imidazo[1,5-a]pyrazin-8-one] | 0.3 to 3 | < 0.3 | 3 to 50 | < 0.3 | 0.3 to 3 | – | – | – |
| Cn1cc(-c2ccc(-c3cn4cncc4c(=O)[nH]3)cc2)cn1 [Compound A4, 6-[4-(1-methyl-1H-pyrazol-4-yl)-phenyl]-7H-imidazo[1,5-a]pyrazin-8-one] | 0.3 to 3 | < 0.3 | – | < 0.3 | 0.3 to 3 | – | – | – |
| O=c1[nH]c(-c2ccc(C(F)(F)F)cc2)cn2cncc12 [Compound A3, 6-(4-Trifluoromethyl-phenyl)-7H-imidazo[1,5-a]pyrazin-8-one] | 0.3 to 3 | < 0.3 | – | < 0.3 | 0.3 to 3 | – | – | – |
| O=c1[nH]c(-c2ccc(CO)cc2)cn2cncc12 [Compound A5, 6-(4-hydroxymethyl-phenyl)-7H-imidazo[1,5-a]pyrazin-8-one] | 0.3 to 3 | < 0.3 | – | < 0.3 | 0.3 to 3 | – | – | – |
| Oc1nc(-c2ccc(C(F)(F)F)cc2)nc2c1CSCC2 [XAV939] | – | – | – | – | – | – | inhibits growth | blocked |

The next lines start with results.

| IC50 [1] [µM] | IC50 [2] [µM] | IC50 (His-tagged Parp-1) [µM] | IC50 [3] [µM] | IC50 [4] [µM] | EC50 (Tankyrases) [M] | Structure (SMILES) | growth of DLD-1-cancer cells (DLD-1-cancer cells) | Wnt-stimulated accumulation of β-catenin (β-catenin) |
| --- | --- | --- | --- | --- | --- | --- | --- | --- |
| – | – | – | – | – | 3e-07 to 3e-06 | Cc1ncc2c(=O)[nH]c(-c3ccc(C(C)(C)O)cc3)cn12 [Compound A8, 6-[4-(1-hydroxy-1-methyl-ethyl)-phenyl]-3-methyl-7H-imidazo[1,5-a]pyrazin-one] | – | – |
| 0.3 to 3 | < 0.3 | – | < 0.3 | 0.3 to 3 | < 3e-07 | Cc1ncc2c(=O)[nH]c(-c3ccc(C(C)(C)C)cc3)cn12 [Compound A7, 6-(4-tert-butyl-phenyl)-3-methyl-7H-imidazo[1,5-a]pyrazin-8-one] | – | – |
| 0.3 to 3 | < 0.3 | 3 to 50 | < 0.3 | < 0.3 | 3e-07 to 3e-06 | CC(C)(C)c1ccc(-c2cn3cncc3c(=O)[nH]2)cc1 [Compound A2, 6-(4-tert-Butyl-phenyl)-7H-imidazo[1,5-a]pyrazin-8-one] | – | – |
